Laboratory results taken from patent publication US20090325964A1, “Piperazine Metabotropic Glutamate Receptor 5 (MGLUR5) Negative Allosteric Modulators For Anxiety/Depression” (Wyeth, priority 2008, published 2009).
Where two headings read alike, the source gives them in different places.

Target: T1, rat mGluR5 receptor (Rattus norvegicus, UniProt P31424)
T1 construct: expressed in transfected cells; host or cells: HEK-293
Assay: [3H]-MPEP displacement binding assay, HEK-293 cell membranes expressing rat mGluR5
Conditions: for Ki: read-out: Median Ki
In short: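 Membranes from HEK-293 cells expressing rat mGluR5 (12-25 μg protein), incubated 60 min at room temperature with 4 nM [3H]-MPEP in 50 mM Tris pH 7.5, then filtered. Nonspecific binding defined with 10 μM MPEP.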

[1] = @ 10 μM compound, Biological Activity, Table 2A, read-out: PCT INHIB (%) @ 10 μM
[2] = [3H]-MPEP displacement, rat mGluR5
[3] = 1 h, single point, @ 10 μm compound, Table 1A, read-out: PCT INHIB (%) @ 10 μm
[4] = [3H]-MPEP displacement, rat mGluR5 membranes

T1 sequence (P31424 21-1203): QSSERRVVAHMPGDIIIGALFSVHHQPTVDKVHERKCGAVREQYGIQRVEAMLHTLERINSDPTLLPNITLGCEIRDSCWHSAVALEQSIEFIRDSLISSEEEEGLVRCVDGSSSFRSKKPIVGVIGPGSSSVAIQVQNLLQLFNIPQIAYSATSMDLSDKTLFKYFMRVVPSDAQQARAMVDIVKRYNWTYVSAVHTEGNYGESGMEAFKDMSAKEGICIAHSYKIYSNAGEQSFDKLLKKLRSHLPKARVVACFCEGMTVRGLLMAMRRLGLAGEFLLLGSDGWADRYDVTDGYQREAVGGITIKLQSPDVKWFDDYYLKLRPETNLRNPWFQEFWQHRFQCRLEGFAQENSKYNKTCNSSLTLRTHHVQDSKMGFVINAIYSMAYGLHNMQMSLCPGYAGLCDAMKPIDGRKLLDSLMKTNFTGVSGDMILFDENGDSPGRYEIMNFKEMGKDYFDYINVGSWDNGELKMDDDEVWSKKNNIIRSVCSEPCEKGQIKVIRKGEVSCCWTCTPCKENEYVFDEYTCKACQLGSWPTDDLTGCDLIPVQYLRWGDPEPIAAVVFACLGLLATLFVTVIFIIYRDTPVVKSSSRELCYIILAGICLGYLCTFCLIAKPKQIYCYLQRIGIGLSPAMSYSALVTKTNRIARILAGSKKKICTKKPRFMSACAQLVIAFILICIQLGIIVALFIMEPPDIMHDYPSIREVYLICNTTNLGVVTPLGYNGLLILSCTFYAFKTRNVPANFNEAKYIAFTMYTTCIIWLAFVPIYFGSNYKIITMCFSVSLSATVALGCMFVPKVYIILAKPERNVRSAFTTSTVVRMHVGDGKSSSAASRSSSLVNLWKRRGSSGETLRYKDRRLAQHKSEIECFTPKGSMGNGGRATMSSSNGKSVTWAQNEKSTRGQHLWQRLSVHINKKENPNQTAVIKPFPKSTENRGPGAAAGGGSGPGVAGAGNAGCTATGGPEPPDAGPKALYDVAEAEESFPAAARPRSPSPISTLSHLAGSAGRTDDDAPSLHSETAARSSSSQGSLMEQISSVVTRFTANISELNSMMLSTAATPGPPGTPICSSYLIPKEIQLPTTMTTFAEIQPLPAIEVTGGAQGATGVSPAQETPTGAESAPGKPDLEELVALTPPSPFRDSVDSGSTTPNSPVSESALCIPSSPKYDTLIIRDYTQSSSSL

In the case of COc1ccc(C(=O)N2CCN(c3cc(C)ccn3)CC2)cc1C#Cc1ccccc1 [Compound 115, 1-[4-methoxy-3-(phenylethynyl)benzoyl]-4-(4-methylpyridin-2-yl]piperazine], the inhibition at 10 µM [1] is reported as 93% and the Ki (Biological Activity, Table 2A) is reported as 3.15 nM.

O=C(c1ccnc(C#Cc2ccccc2)c1)N1CCN(c2ccncc2)CC1 [Compound 144, 1-[2-(phenylethynyl)isonicotinoyl]-4-pyridin-4-ylpiperazine] was tested, and the inhibition at 10 µM [1] was 10%.

COc1ccc(C(=O)N2CCN(c3sc(S(N)(=O)=O)cc3[N+](=O)[O-])CC2)cc1C#Cc1ccccn1 [Compound 254, 5-{4-[4-methoxy-3-(pyridin-2-ylethynyl)benzoyl]piperazin-1-yl}-4-nitrothiophene-2-sulfonamide] gave a Ki [2] of 108 nM.

In the case of O=C(c1cccc(C#Cc2cccc(O)c2)c1)N1CCN(c2ccccn2)CC1 [Compound 6, 3-({3-[(4-pyridin-2-ylpiperazin-1-yl)carbonyl]phenyl}ethynyl)phenol], the inhibition at 10 µM [3] is reported as 75% and the Ki is reported as 1120 nM.

With N#Cc1ccc(N2CCN(C(=O)c3cccc(C#Cc4ccccn4)c3)CC2)nc1 [Compound 96, 6-{4-[3-(pyridin-2-ylethynyl)benzoyl]piperazin-1-yl}nicotinonitrile] the inhibition at 10 µM [1] was 50% and the Ki (Biological Activity, Table 2A) was 3240 nM.

Cc1cc(C)nc(N2CCN(C(=O)c3ccnc(C#Cc4ccccc4)c3)CC2)n1 [Compound 140, 4,6-dimethyl-2-{4-[2-(phenylethynyl)isonicotinoyl]piperazin-1-yl}pyrimidine] showed an inhibition at 10 µM [1] of 37%.

Molecule COc1ccc(C(=O)N2CCN(c3ccccn3)CC2)cc1C#Cc1cccc(N)c1 [Compound 34, 3-({2-methoxy-5-[(4-pyridin-2-ylpiperazin-1-yl)carbonyl]phenyl}ethynyl)aniline] has an inhibition at 10 µM [3] of 62% and a Ki of 299 nM.

COc1ccc(C(=O)N2CCN(S(=O)(=O)c3c(C)noc3C)CC2)cc1C#Cc1ccccn1 [Compound 270, 1-[(3,5-dimethylisoxazol-4-yl)sulfonyl]-4-[4-methoxy-3-(pyridin-2-ylethynyl)benzoyl]piperazine] was tested, and the Ki [2] was 1540 nM.

COc1ccc(C(=O)N2CCN(S(=O)(=O)c3ccc(-n4cnnn4)c(OC)c3)CC2)cc1C#Cc1ccccn1 [Compound 272, 1-[4-methoxy-3-(pyridin-2-ylethynyl)benzoyl]-4-{[3-methoxy-4-(1H-tetrazol-1-yl)phenyl]sulfonyl}piperazine] was tested, and the IC50 ([3H]-MPEP displacement, rat mGluR5, no Ki given, read-out: IC50 (printed in the Median Ki column instead of a Ki)) was greater than 10000 nM.

Cc1ccc(C(=O)N2CCN(c3ccccn3)CC2)cc1C#Cc1cccc(N)c1 [Compound 36, 3-({2-methyl-5-[(4-pyridin-2-ylpiperazin-1-yl)carbonyl]phenyl}ethynyl)aniline] was tested, and the inhibition at 10 µM [3] was 79% and the Ki was 474 nM.

Molecule O=C(c1cccc(C#Cc2ccccc2)c1)N1CCN(c2ccncc2)CC1 [Compound 142, 1-[3-(phenylethynyl)benzoyl]-4-pyridin-4-ylpiperazine] has an inhibition at 10 µM [1] of 53%.

O=C(c1ccnc(C#Cc2ccccc2)c1)N1CCN(c2cnccn2)CC1 [Compound 127, 2-{4-[2-(phenylethynyl)isonicotinoyl]piperazin-1-yl}pyrazine] was tested, and the inhibition at 10 µM [1] was 36%.

For COc1ccc(C(=O)N2CCN(c3nc(-c4ccccc4)ns3)CC2)cc1C#Cc1ccccn1 [Compound 281, 1-[4-methoxy-3-(pyridin-2-ylethynyl)benzoyl]-4-(3-phenyl-1,2,4-thiadiazol-5-yl)piperazine], the Ki [2] was 197 nM.

COc1ccc(C(=O)N2CCN(c3ccc(C(F)(F)F)cc3)CC2)cc1C#Cc1ccccn1 [Compound 228, 1-[4-methoxy-3-(pyridin-2-ylethynyl)benzoyl]-4-[4-(trifluoromethyl)phenyl]piperazine] gave a Ki [2] of 674 nM.

Work on Cc1cccc(N2CCN(C(=O)c3ccc(C(F)(F)F)c(C#Cc4ccccn4)c3)CC2)n1 [Compound 380, 1-(6-methylpyridin-2-yl)-4-{[3-(pyridin-2-ylethynyl)-4-(trifluoromethyl)phenyl]carbonyl}piperazine] yielded a Ki [4] of 352 nM.

Work on CCOc1ccc(C(=O)N2CCN(c3ncccc3Cl)CC2)cc1C#Cc1ccccn1 [Compound 321, 1-(3-chloropyridin-2-yl)-4-[4-ethoxy-3-(pyridin-2-ylethynyl)benzoyl]piperazine] yielded a Ki [2] of 149 nM.

O=C(c1ccnc(C#Cc2ccccc2)c1)N1CCN(c2ccc(C(F)(F)F)cn2)CC1 [Compound 123, 1-[2-(phenylethynyl)isonicotinoyl]-4-[5-(trifluoromethyl)pyridin-2-yl]piperazine] gave an inhibition at 10 µM [1] of 0%.

Molecule COc1ccc(C(=O)N2CCN(c3ccncc3)CC2)cc1C#Cc1ccccc1 [Compound 145, 1-[4-methoxy-3-(phenylethynyl)benzoyl]-4-pyridin-4-ylpiperazine] has an inhibition at 10 µM [1] of 91% and a Ki (Biological Activity, Table 2A) of 1300 nM.

For Cc1cnc(C)c(N2CCN(C(=O)c3cccc(C#Cc4ccccn4)c3)CC2)n1 [Compound 103, 2,5-dimethyl-3-{4-[3-(pyridin-2-ylethynyl)benzoyl]piperazin-1-yl}pyrazine], the inhibition at 10 µM [1] was 16%.

For COc1ccc(C(=O)N2CCN(c3ncccc3Cl)CC2)cc1C#Cc1ccccc1F [Compound 351, 1-(3-chloropyridin-2-yl)-4-{3-[(2-fluorophenyl)ethynyl]-4-methoxybenzoyl}piperazine], the Ki [2] was 4300 nM.

With COc1ccc(C(=O)N2CCN(c3cnccn3)CC2)cc1C#Cc1cccc(C(F)(F)F)c1 [Compound 54, 2-[4-(4-methoxy-3-{[3-(trifluoromethyl)phenyl]ethynyl}benzoyl)piperazin-1-yl]pyrazine] the inhibition at 10 µM [3] was 96% and the Ki was 109 nM.

COc1ccc(C(=O)N2CCN(c3ncccn3)CC2)cc1C#Cc1ccncc1 [Compound 355, 2-{4-[4-methoxy-3-(pyridin-4-ylethynyl)benzoyl]piperazin-1-yl}pyrimidine] was tested, and the Ki [2] was 1570 nM.

For N#Cc1cccnc1N1CCN(C(=O)c2cncc(C#Cc3ccccc3)c2)CC1 [Compound 135, 2-(4-{[5-(phenylethynyl)pyridin-3-yl]carbonyl}piperazin-1-yl)nicotinonitrile], the inhibition at 10 µM [1] was 28%.

In the case of COc1ccc(C(=O)N2CCN(S(=O)(=O)c3ccc(Cl)c(Cl)c3)CC2)cc1C#Cc1ccccn1 [Compound 239, 1-[(3,4-dichlorophenyl)sulfonyl]-4-[4-methoxy-3-(pyridin-2-ylethynyl)benzoyl]piperazine], the Ki [2] is reported as 1410 nM.

Work on COc1nsnc1N1CCN(C(=O)c2cccc(C#Cc3ccccn3)c2)CC1 [Compound 102, 1-(4-methoxy-1,2,5-thiadiazol-3-yl)-4-[3-(pyridin-2-ylethynyl)benzoyl]piperazine] yielded an inhibition at 10 µM [1] of 92% and a Ki (Biological Activity, Table 2A) of 80 nM.

O=C(c1cccc(C#CC2(O)CCCC2)c1)N1CCN(c2ccccn2)CC1 [Compound 9, 1-({3-[(4-pyridin-2-ylpiperazin-1-yl)carbonyl]phenyl}ethynyl)cyclopentanol] was tested, and the inhibition at 10 µM [3] was 0%.

With Cc1ccc(C(=O)N2CCN(c3ccccn3)CC2)cc1C#Cc1cc(C(F)(F)F)cc(C(F)(F)F)c1 [Compound 47, 1-(3-{[3,5-bis(trifluoromethyl)phenyl]ethynyl}-4-methylbenzoyl)-4-pyridin-2-ylpiperazine] the inhibition at 10 µM [3] was 0%.

COc1ccc(C(=O)N2CCN(S(=O)(=O)c3ccc(-n4cnnn4)cc3)CC2)cc1C#Cc1ccccn1 [Compound 284, 1-[4-methoxy-3-(pyridin-2-ylethynyl)benzoyl]-4-{[4-(1H-tetrazol-1-yl)phenyl]sulfonyl}piperazine] was tested, and the Ki [2] was 376 nM.

COc1ccc(C(=O)N2CCN(C(=O)C3CCCO3)CC2)cc1C#Cc1ccccn1 (stereo not shown) [Compound 249, 1-[4-methoxy-3-(pyridin-2-ylethynyl)benzoyl]-4-(tetrahydrofuran-2-ylcarbonyl)piperazine] gave a Ki [2] of 181 nM.

In the case of O=C(c1cccc(C#Cc2ccccn2)c1)N1CCN(c2nnn[nH]2)CC1 [Compound 97, 1-[3-(pyridin-2-ylethynyl)benzoyl]-4-(1H-tetrazol-5-yl)piperazine], the inhibition at 10 µM [1] is reported as 0%.

Molecule O=C(c1cccc(C#CC2=CCCCC2)c1)N1CCN(c2ccccn2)CC1 [Compound 8, 1-[3-(cyclohex-1-en-1-ylethynyl)benzoyl]-4-pyridin-2-ylpiperazine] has an inhibition at 10 µM [3] of 78% and a Ki of 1220 nM.

For Cc1ccc(C(=O)N2CCN(c3cnccn3)CC2)cc1C#CC1=CCCCC1 [Compound 56, 2-{4-[3-(cyclohex-1-en-1-ylethynyl)-4-methylbenzoyl]piperazin-1-yl}pyrazine], the inhibition at 10 µM [3] was 70% and the Ki was 1890 nM.

O=C(c1ccc(OCC2CC2)c(C#Cc2ccccn2)c1)N1CCN(c2ncccn2)CC1 [Compound 325, 2-(4-{[4-(cyclopropylmethoxy)-3-(pyridin-2-ylethynyl)phenyl]carbonyl}piperazin-1-yl)pyrimidine] was tested, and the Ki [2] was 1340 nM.

COc1nc(OC)nc(N2CCN(C(=O)c3ccc(OC)c(C#Cc4ccccn4)c3)CC2)n1 [Compound 305, 2,4-dimethoxy-6-{4-[4-methoxy-3-(pyridin-2-ylethynyl)benzoyl]piperazin-1-yl}-1,3,5-triazine] showed a Ki [2] of 229 nM.

Cc1ccc(C(=O)N2CCN(c3cnccn3)CC2)cc1C#Cc1cccc(C(F)(F)F)c1 [Compound 60, 2-[4-(4-methyl-3-{[3-(trifluoromethyl)phenyl]ethynyl}benzoyl)piperazin-1-yl]pyrazine] was tested, and the inhibition at 10 µM [3] was 85% and the Ki was 749 nM.

“1-(4-methylpyridin-2-yl)-4-{[3-(pyridin-2-ylethynyl)-4-(trifluoromethyl)phenyl]carbonyl}piperazine [Compound 367]” showed a Ki [4] of 8 nM.

In the case of COc1ccc(C(=O)N2CCN(c3ccccn3)CC2)cc1C#Cc1ccncc1 [Compound 45, 1-[4-methoxy-3-(pyridin-4-ylethynyl)benzoyl]-4-pyridin-2-ylpiperazine], the inhibition at 10 µM [3] is reported as 68% and the Ki is reported as 990 nM.
